Results reported in PMC4115230, “Lipid–Protein Nanodiscs Offer New Perspectives for Structural and Functional Studies of Water-Soluble Membrane-Active Peptides” (Acta Naturae, 2014).
Entries after “also recorded” stand apart in the source; their conditions may differ. Where no end group is shown, it is not given here.

Experiments:
[1] = test system: LPN/POPC; assay: NMR titration binding isotherm with LPN/POPC nanodiscs
Method: (§1) The recombinant 44–243 fragment of the human apolipoprotein A1 with a N-terminal sequence of six His residues was used as an MSP protein. The purified MSP protein, obtained as described in [20], was mixed at a molar ratio of 1 : 75 with lipids in the presence of a detergent, sodium cholate (2 : 1 cholate/lipids molar ratio), and the mixture was incubated at 4 °C for 3 h. When using saturated lipids (DLPC, DLPG), the reaction temperature was kept not lower than 25 °C. Spontaneous LPN assembly was initiated by detergent sorption to the Bio-Beads™ resin (Bio-Rad, USA) for 1.5 h. Purification of the nanodiscs was performed on a Ni^2+ Sepharose 6 Fast Flow resin (GE Healthcare, USA) equilibrated with buffer A (20 mM Tris-HCl, 0.5 M NaCl, 1 mM NaN3, pH 8.0). After loading the reaction mixture, the resin was washed with a fivefold volume of buffer A. LPNs were eluted with buffer A containing 100 mM imidazole. The MSP concentration was determined spectrophotometrically by absorbance at λ = 280 nm. The LPN concentration was determined by assuming that each nanodisc contained two MSP molecules.
(§2) NMR spectra were acquired at 40–45 °C on AVANCE -700 and AVANCE -III-800 spectrometers (Bruker, Germany) equipped with cryogenically cooled triple-resonance probes at the proton resonance frequencies of 700 and 800 MHz, respectively.
(§3) To measure the isotherms of the toxins binding to LPNs and MSP molecules, the VSTx1 and NT II samples ([…], 10 mM Tris-Ac, pH 7.0) were titrated with solutions of nanodiscs (70 μM) of various lipid compositions or with a MSP solution (0.7 mM). The 1D 1H-NMR spectrum was acquired at each point. A data analysis was performed assuming that the intensity of the observed NMR signals of a peptide is proportional to its equilibrium concentration in solution ([P]free). The binding curves were fitted either to the partition equilibrium equation (1) or to the Langmuir isotherm equation (2), taking into account the dilution of the initial samples upon titration:
(§4) where [LPN/lipid] is the LPN concentration (assuming that one nanodisc contains two MSP molecules) or the lipid concentration (assuming that one nanodisc contains 150 lipid molecules), [P]boundis the concentration of a peptide bound to LPN ([P]0 = [P]free+ [P]bound), Kpis the partition coefficient, n is the number of binding sites for a peptide on the nanodisc surface, and Knis the affinity constant of the peptide to the binding site on the nanodisc surface.

[2] = test system: MSP (44-243 fragment of human apolipoprotein A1); assay: NMR titration binding isotherm with MSP
Method: as §1, §2, §3, §4

[3] = buffer containing 150 mM KCl; ref [3]; cited from earlier work
Description: These differences in the toxin affinity may b ...

[4] = test system: LPNs; assay: Gel filtration analysis of LPNs after peptide addition (nanodisc integrity, particle size); format: physicochemical; conditions: for nanodisc disruption: 1 mM EDTA, pH 7.4, 280 nm
Method: was carried out on a Superdex-200 resin using a Tricorn 5/200 column (GE Healthcare, Sweden) in buffer (10 mM Tris-HCl, 0.1 M NaCl, 1 mM EDTA, 1 mM NaN3, pH 7.4). Thyroglobulin (669 kDa, Stokes radius RH = 8.5 nm), ferritin (440 kDa, RH = 6.1 nm), catalase (232 kDa, RH = 5.22 nm), aldolase (158 kDa, RH = 4.81 nm) BSA (67 kDa, RH = 3.55 nm), and ovalbumin (43 kDa, RH = 3.05 nm) were used as calibration proteins. The flow rate through the column was 0.3 ml/min. Detection was performed at 280 nm. The particle size was determined from the elution volume vs the lgRH calibration curve. All the particle size (diameter) values provided below correspond to twice RH values. ;

[5] = test system: nanodisc surface or MSP molecule; assay: Langmuir analysis of VSTx1 binding to sites on nanodisc surface or MSP; conditions: Langmuir isotherm (eq. 2); range over LPN/POPC, LPN/POPC/DOPG and MSP
Method: as §3, §4

[6] = test system: LPN/POPC/DOPG (3 : 1); assay: NMR titration binding isotherm with LPN/POPC/DOPG (3 : 1) nanodiscs
Method: as §1, §2, §3, §4

[7] = test system: K^+ channels; conditions: ref [3]; cited from earlier work
Description: (§5) The VSTx1 toxin is a small β-structured peptide stabilized by three disulfide bonds which form a “cysteine knot” (Fig. 1). […] According to current data, VSTx1 inhibits the voltage-dependent activation of K^+ channels and uses “membrane catalysis” mechanisms when forming a complex with the voltage-sensing domain of the channel.

[8] = ref [31]; cited from earlier work
Description: as §5

[9] = test system: LPNs; conditions: ref [12], [15], [20]; cited from earlier work
Description: (§6) Given that the mechanisms associated with the change in the local curvature of the lipid bilayer (“toroidal” pore formation, bilayer micellization) underlie the action of the overwhelming majority of water- soluble cationic AMPs, we can assume that many of these molecules will have a destructive effect on LPNs. Thus, nanodiscs are probably not suited as a medium for studying these peptides. It should be noted that there are other classes of channel- and pore-forming biomolecules that can be studied in LPN-based media.

[10] = ref [12], [15], [20]; cited from earlier work
Description: as §6

[11] = Mean Kyte-Doolittle hydrophobicity index; conditions: among the three studied peptides
Description: The problems related to the application of LPNbased membrane mimetic media in structural and biophysical studies of water-soluble MPs have yet to be studied. It should be noted that this is far from being a trivial matter, since LPNs, unlike vesicles, bicelles, and micelles, contain an additional component, MSP, which is an anionic protein (charge of –6). In this paper, the interaction of water-soluble MPs with LPNs was studied using three model cationic β-structured peptides (Fig. 1), which have different physicochemical properties and represent three classes of membrane-active compounds. The antimicrobial peptide arenicin-2 (Ar2, 21 AA, 2772 Da, charge of +6, mean Kyte-Doolittle hydrophobicity index is –0.06, The maximum and minimum values of the Kyte-Doolittle hydrophobicity index are +4.5 and –4.5 for poly-Ile and poly-Arg sequences, respectively.) from coelomocytes of the polychaete lugworm Arenicola marina interacts selectively with membranes containing negatively charged lipid molecules and forms oligomeric pores in them. The VSTx1 toxin (34 AA, 4010 Da, charge of +3, hydrophobicity index is –0.27) from Grammostola spatulata spider venom uses the “membrane catalysis” mechanism to interact with the voltage-sensitive domains of K+-channels localized in the cell membrane, and it lacks pore-forming ability. […]

[12] = CD spectroscopy; ref [18], [21]; cited from earlier work
[13] = cited from earlier work
Description: The cationic AMP, Ar2, contains mainly positively charged and hydrophobic residues and has a β-hairpin structure in water, which is stabilized with one disulfide bond (Fig. 1). […] As expected, the β-hairpins of individual peptides within the pore have a transmembrane orientation, so that the ...

[14] = CD spectroscopy; ref [18], [21]; cited from earlier work; remark: listed apart in the source
[15] = test system: LPNs; assay: Opalescence/opacity of LPN solutions on Ar2 addition; format: physicochemical
Method: During that study, an aqueous Ar2 solution was added to nanodisc samples. […] An analysis of the sample supernatants by gel filtration confirmed this assumption. […] A similar process is known as high-density lipoprotein remodeling, which can occur both in vitro and in vivo upon the interaction of lipoprotein particles with lipophilic plasma proteins. Previously, nanodisc fusion had been observed in cell-free protein biosynthesis systems with the cotranslational incorporation of membrane proteins into LPNs containing unsaturated lipids. The spontaneous LPN fusion in vitro proceeds very slowly, but it could be considerably accelerated under denaturing conditions.

[16] = Langmuir isotherm (eq. 2), 10 mM Tris-Ac, pH 7.0, 40–45 °C
[17] = maximum ("up to"), Langmuir isotherm
[18] = partition equilibrium (eq. 1), lipid concentration as non-aqueous phase (150 lipids per nanodisc), 10 mM Tris-Ac, pH 7.0, 40–45 °C, no added salt
[19] = Superdex-200, 10 mM Tris-HCl, 0.1 M NaCl

VSTx1 (GSECGKFMWKCKNSNDCCKDLVCSSRWKWCVLASPF; not fully specified; ends and bridges not checked)
Kn, affinity constant of the peptide to the binding site on the LPN surface [1, 16]: 0.06 ± 0.01 ×10^6·M^-1 | n, number of binding sites on the LPN surface [1, 16]: 9.6 ± 1.5 | binding to LPNs ([1]; POPC, 1D 1H-NMR titration, 10 mM Tris-Ac, pH 7.0): lower affinity; also recorded: interacts less efficiently | toxin molecules bound per nanodisc containing POPC (~ 150 molecules) [1, 17]: ~ 10 toxin molecules | Kp(LPN, MSP×2), partition coefficient ([1]; partition equilibrium (eq. 1), LPN concentration as non-aqueous phase, 1D 1H-NMR titration, 10 mM Tris-Ac, pH 7.0, 40–45 °C, no added salt): 0.39 ± 0.02 ×10^6·M^-1 | Kp(Lipids), partition coefficient [1, 18]: 2.6 ± 0.2 ×10^3·M^-1 | interaction with MSP ([2]; MSP without lipids, 1D 1H-NMR titration, 10 mM Tris-Ac, pH 7.0): weakly interacts; also recorded: weak interaction | Kn, affinity constant of the peptide to the binding site ([2]; MSP×2, no lipids, Langmuir isotherm (eq. 2), 10 mM Tris-Ac, pH 7.0, 40–45 °C): 0.05 ± 0.02 ×10^6·M^-1 | Kp(LPN, MSP×2), partition coefficient ([2]; MSP×2, no lipids, partition equilibrium (eq. 1), titration with 0.7 mM MSP, 10 mM Tris-Ac, pH 7.0, 40–45 °C): 0.10 ± 0.01 ×10^6·M^-1 | VSTx1 molecules bound per MSP molecule ([2]; in the absence of lipids, each MSP molecule): up to 1.6 VSTx1 molecules | Kp, partition coefficient, vesicles of POPE/POPG (3 : 1) [3]: ~ 2 × 10^3 × 10^3 M^-1 | nanodisc disruption [4, 19]: does not cause their disruption; also recorded: no nanodisc disruption | diameter of unbound toxin ([4]; Superdex-200, 10 mM Tris-HCl, 0.1 M NaCl, pH 7.4, diameter = 2 RH): ~ 2.0 nm | Kn, affinity to the sites on the nanodisc surface or on a MSP molecule [5]: 50000 to 130000 M⁻¹ | Kn, affinity constant of the peptide to the binding site on the LPN surface [6, 16]: 0.13 ± 0.02 ×10^6·M^-1 | n, number of binding sites on the LPN surface [6, 16]: 34.5 ± 3.9 | binding to LPNs ([6]; POPC/DOPG, 3 : 1, 1D 1H-NMR titration, 10 mM Tris-Ac, pH 7.0): effectively binds; also recorded: interacts effectively with LPNs containing anionic lipids | lipid molecules per toxin molecule ([6]; at ~ 35 binding sites per nanodisc): ~ 4 lipid molecules per toxin molecule | number of binding sites with negatively charged lipids added [6, 17]: ~ 35 | Kp(LPN, MSP×2), partition coefficient ([6]; partition equilibrium (eq. 1), LPN concentration as non-aqueous phase, 10 mM Tris-Ac, pH 7.0, 40–45 °C, no added salt): 2.68 ± 0.24 ×10^6·M^-1 | Kp(Lipids), partition coefficient [6, 18]: 17.8 ± 1.6 ×10^3·M^-1 | voltage-dependent activation of K^+ channels [7]: inhibits | affinity for interface of phospholipid membranes containing anionic lipids [8]: considerable affinity | interaction with zwitterionic lipid membranes [8]: weakly interacts | membrane lytic activity [8]: no membrane lytic activity

antiamoebin I
complex formation with LPNs [9]: formation of stable complexes | upper limit of solubility in water [10]: 30 µM

arenicin-2 (RWCVYAYVRIRGVLVRYRRCW; not fully specified; ends and bridges not checked; UniProt Q5SC59 182-202, looked up) [Ar2, antimicrobial peptide (21 AA) from coelomocytes of the polychaete lugworm Arenicola marina]
relative hydrophobicity [11]: most hydrophobic among the studied peptides | size of large complexes ([4]; Ar2/LPN sample supernatants, Superdex-200, pH 7.4, diameter = 2 RH): ~ 15 nm | nanodisc disruption [4, 19]: causes nanodisc fusion, accompanied by the release of MSP molecules | nanodisc disruption ([4]; Superdex-200, 10 mM Tris-HCl, 0.1 M NaCl, listed as arenicin-2): disintegrates LPNs | binding to DOPG liposomes [12]: binds with high affinity | bilayer micellization ([13]; at high concentrations, ref [24]): probably causes bilayer micellization | interaction with membranes containing negatively charged lipids ([13]; ref [18]): interacts selectively with membranes containing negatively charged lipid molecules and creates in them oligomeric pores | interaction with POPC vesicles/liposomes [14]: does not interact | LPN solution turbidity ([15]; equimolar concentrations (Ar2/LPN = 1 : 1) and higher): opaque | LPN solution turbidity ([15]; small peptide concentrations added): strongly opalescent
